Tests used:
[1] = system: Promega Mid-Range Molecular Weight Standards; experiment: Post-electrophoretic detection of protein using NBODY derivatives; conditions: crude dye solution in 5% acetic acid, 20% ethanol, one hour
Procedure: Promega Mid-Range Molecular Weight Standards were diluted and heated as described in Example 27 to produce solutions containing 125, 25, 5 and 1 ng of protein per band in 10 microliters of solution. A 10% Tris Glycine, precast polyacrylamid gel from Novex Corp. (San Diego, Calif., USA, Cat. No. EC 6075.) was loaded with 10 microliters of the just described, diluted molecular weight standard solutions in lanes so that two lanes, each with the same diluted standard solution, were separated by a blank lane. The gel was developed using conditions recommended by the manufacturer and following development, the gel was cut in the blank lane. The segments were placed in 50 ml of 5% acetic acid, 20% ethanol. Six hundred microliters of the NBODY-C12 reaction mixture from Example 40 was added to the solution with one of the segments of a pair (of lanes with the same protein molecular weight standard solution) and three hundred microliters of the NBODY-C16 reaction mixture from Example 40 was added to the solution with the other segment of the same pair. After one hour of incubation, the gel segments were photographed on a transilluminator as described in example 27. Protein bands were detected in the lanes containing the 125 and 25 ng of protein per band using this method and the crude dye solutions from Example 40.

[2] = system: Promega Mid-Range Molecular Weight Markers; experiment: Sensitive post-electrophoretic detection of protein using purified NBODY dye
Procedure: A 12% SDS-PAGE gel was prepared as described in Example 27 and was loaded with dilute Promega Mid-Range Molecular Weight Markers (diluted and heated as in Example 27) to produce lanes which contained 100, 80, 60, 40, 20, 10 and 5 ng of protein per band. The gel was run in a BioRad Miniprotean II gel system at 50V for 1.5 hr. then 125V until the tracking dye reached the bottom of the gel. After the dye reached the bottom of the gel, the gel was removed from the apparatus and placed in 50 ml of 5% acetic acid, 20% ethanol.
The NBODY dye prepared as in Example 40 with n-dodecyl amine was purified by applying 2 ml of the NBODY-C12 reaction mixture from Example 40 3cm from one edge of a 25×25cm silica gel plate (Sigma Chemical Co., St. Louis, […]., USA). The plate was developed using a 6:1 ratio of tolulene:ethyl acetate. […]
After 30 minutes in the 5% acetic acid, 20 % ethanol, the gel was removed from that solution and replaced with a solution containing the purified NBODY-C12 stain with the following composition: one ml of purified NBODY-C12 solution was placed in 50 ml of 35% ethanol, 5% acetic acid. […] After one hour in the water solution, the gel was scanned on a Molecular Dynamics Fluoroimager (Molecular Dynamics, Sunnyvale, Calif.), which excites fluorescence with laser light of 483 nm wavelength.

[3] = system: Promega Mid-Range Molecular Weight Standards; experiment: Detection of proteins during SDS-PAGE with Acid Blue 25 dyes; conditions: 0.01% (w/v) in cathode buffer (Example 23)
Description: Ten μl of each solution was loaded into lanes of the three gels, and they were placed into three separate Bio-Rad Miniprotean II gel apparati (Bio-Rad, Richmond, Calif., USA) with the cathode solutions containing 1.0, 0.75, or 0.5% (v/v) of the derivatized Acid Blue 25 preparation (unpurified). The samples were then fractionated within the gels by application of 15 mA of current per gel.

SMILES | lowest protein per band detected [1] | visibility of protein bands ([2]; lanes of 100 to 5 ng per band) | detection limit ([2]; purified dye in 35% ethanol, 5% acetic acid, one hour, water one hour, Fluoroimager 483 nm) | visibility of protein bands during electrophoresis [3]
CCCCCCCCCCCCNC(=O)CCCCCNc1ccc([N+](=O)[O-])c2nonc12 [NBODY-C12] | 25 ng | Protein bands were seen for all of the protein species in the lanes containing all protein concentrations | lower than 5 ng | –
Nc1c(S(=O)(=O)O)cc(Nc2ccccc2)c2c1C(=O)c1ccccc1C2=O [unmodified Acid Blue 25] | – | – | – | no protein bands were seen

Reference: patent publication US5705649A, “Protein staining compositions and methods” (Promega Corporation, priority 1995, dated 1998)
